The assay relates to HEK293. The assay is described as follows: cells. To be noted: Homo sapiens.

Consider `N#Cc1ccccc1-c1ccc(COCc2ccc(-n3cc(C(=O)O)cn3)nc2)cc1`, for which the EC50 was greater than 100 µM.

`O=C(O)c1cnn(-c2ccc(COCc3ccc(Cl)cc3)cn2)c1`: the EC50 worked out at 7.4 µM. This counts as single-digit micromolar.

`O=C(O)c1cnn(-c2ccc(COCc3cccc(Cl)c3)cn2)c1` displayed an EC50 of 3.8 µM.

Compound `O=C(O)c1cnn(-c2ccc(COCc3ccccc3)cn2)c1` showed an EC50 of 25 µM.

`COc1ccc(COCc2ccc(-n3cc(C(=O)O)cn3)nc2)cc1` returned an EC50 of 1 µM.

In turn, `O=C(O)c1cnn(-c2ccc(COCc3cccc(C(F)(F)F)c3)cn2)c1` yielded an EC50 of 11 µM.

`COc1cccc(COCc2ccc(-n3cc(C(=O)O)cn3)nc2)c1` yielded an EC50 greater than 100 µM.
